Data taken from US20230048678A1, “ICAN DERIVATIVES FOR ANTIFUNGAL USE” (DEBRECENI EGYETEM, priority 2019, published 2023).
“Also recorded” adds a separate entry of the source.

Tests used:
[1] = test system: clinical Candida isolates (C. albicans, C. krusei, C. tropicalis, C. glabrata, C. parapsilosis); assay: Broth microdilution, MIC summarised over all clinical Candida isolates; assay type: cell-based; settings: range or bound over all tested isolates of five Candida species; read-out: total minimum inhibitory concentration (MICTI)
Experimental: The present inventors have discovered that 1-amino-5-isocyanonaphthalene (ICAN) and its derivatives exert excellent antifungal activity against a broad range of Candida species. […] Nevertheless, proper formulation and/or substitution with solubility enhancer groups on the naphthalene core may increase its effectiveness. Based on MIC values (MICPI=0.04−0.3 μg/ml MICTI=0.6 μg/ml) and its low cytotoxicity 1,1-N-dimethylamino-5-isocyanonaphthalene (DIMICAN) was selected to be tested on clinical Candida isolates. […] Amphotericin B (AMB) is an antifungal agent which is effective against a number of medically important fungi. The in vivo applicability of DIMICAN was tested on immunosuppressed mice and control experiments were also conducted with amphotericin B. In the model of acute invasive candidiasis, neutropenic mice were infected intravenously with C. albicans isolate 3666 (3×10^4 cfu/mouse) to establish an acute infection, and all untreated control animals died within 6 days. […]
The tested C. albicans, C. tropicalis, C. parapsilosis, C. glabrata and C. krusei ATCC strains and clinical isolates are listed in Table 2. MICs were determined according to the CLSI M27-A3 [22]. […] MICs were read visually after 48-h incubation at 35° C. using the partial (50%) inhibition (for ICAN derivatives) (PI) and total inhibition (for AMB and ICAN derivatives) (TI) criteria. MICs were determined at least twice. […]

C. glabrata isolates = assay: CLSI M27-A3 broth microdilution on Candida isolates (Table 2); assay type: cell-based
Experimental: (§1) The tested C. albicans, C. tropicalis, C. parapsilosis, C. glabrata and C. krusei ATCC strains and clinical isolates are listed in Table 2. MICs were determined according to the CLSI M27-A3 [22]. Antifungal agents were dissolved in 100% DMSO and diluted further in RPMI-1640 (with L-glutamine but without bicarbonate) (Sigma, Budapest, Hungary), and buffered to pH 7.0 with 0.165 M morpholinopropanesulfonic acid (MOPS; Sigma, Budapest, Hungary). The final concentration ranges used for AMB and ICAN derivatives were 0.125 to 4 μg/ml and 0.04 to 20 μg/ml, respectively. Yeast cell suspensions were prepared in RPMI 1640 medium and were adjusted to give a final inoculum concentration of 0.5×10^3 to 2.5×10^3 cells/ml. MICs were read visually after 48-h incubation at 35° C. using the partial (50%) inhibition (for ICAN derivatives) (PI) and total inhibition (for AMB and ICAN derivatives) (TI) criteria. MICs were determined at least twice. For amphotericin B isolates with MIC values of ≤2 mg/L were considered wild-types. [Pfaller M A, 2012]

C. krusei isolates = assay: as above; assay type: cell-based
Experimental: as §1

C. parapsilosis isolates = assay: as above; assay type: cell-based
Experimental: as §1

C. tropicalis isolates = assay: as above; assay type: cell-based
Experimental: as §1

C. albicans isolates = assay: as above; assay type: cell-based
Experimental: as §1

C. albicans isolate 3666 = assay: Murine model, kidney fungal burden; assay type: in vivo, BALB/c mice; settings: immunosuppressed mice, 10^4 cfu/mouse iv
Experimental: During an independent in vivo experiment mice were infected intravenously with C. albicans isolate 3666. The infected mice were euthanized 2 or 6 days after infection (n=5 and 6 mice/time point, respectively), as disclosed herein, to determine the fungal burdens in the kidneys. Kidney burden was analyzed using a Kruskal-Wallis test with Dunn's posttest for multiple comparisons [Foldi R 2012, Kovacs R 2014]. Results of fungal burden experiments are shown on FIGS. 3b and c. […] It is well seen in […], that on day 6. the fungal burden increased by an order of magnitude (from −10^5 to −10^6) in the case of the untreated mice, while in the case of DIMICAN it remained the same as it was on day 2. The same is valid for AMB.
We used 10-12 week-old female BALB/c mice for all experiments. Mice were immunosuppressed using 150 mg/kg intraperitoneal (ip) cyclophosphamide dose (4 days prior to infection) and 100 mg/kg ip cyclophosphamide dose (1 day prior to infection; 2 and 5 days after infection) [Spellberg B, 2005]. All mice received ceftazidime (5 mg/day subcutaneously) from days 0 to 6 after infection. Mice were given food and water ad libitum and were monitored daily. The animals were maintained in accordance with the Guidelines for the Care and Use of Laboratory Animals, and the experiments were approved by the Animal Care Committee of the University of Debrecen, Debrecen, Hungary (permission no. 12/2014).
Mice were infected via the lateral tail vein with C. albicans 3666 bloodstream isolate. In the lethality (10 mice/group) and fungal tissue burden experiments (6 mice/group) the infectious doses were 3×10^4 and 10^4 cfu/mouse, respectively. These doses led to 100% and 0% mortality, respectively by day 6 after infection among untreated mice. Inoculum density was confirmed by plating serial dilutions onto Sabouraud dextrose agar (SDA) plates.
AMB (Fungizone, commercial preparation) and DIMICAN treatment in a 0.5-ml bolus was started 1 h after infection. The doses were 1 mg AMB and 5 mg DIMICAN (in olive oil/water (o/w) emulsion) per kg body weight. All antifungals were administered intraperitoneally once daily for 5 consecutive days.
Infected mice were euthanized 2 or 6 days after infection (n=6 mice/time point) to determine the fungal burden in the kidney. […] Aliquots of 0.1 ml of the undiluted and diluted homogenates were plated onto SDA, and the colony count was determined after 48 h. Colony-forming units (CFUs) were determined after 48 h of incubation at 37° C. and results were expressed as cfus/g tissue [Spellberg B, 2005]. […]
Survival effects were analyzed by the Kaplan—Meier log-rank test. Kidney burden was analysed using a Kruskal—Wallis test with Dunn's posttest for multiple comparisons [Foldi R 2012, Kovacs R 2014].

C[C@@H]1[C@H](O)[C@@H](C)/C=C/C=C/C=C/C=C/C=C/C=C/C=C/[C@H](O[C@@H]2O[C@H](C)[C@@H](O)[C@H](N)[C@@H]2O)C[C@@H]2O[C@](O)(C[C@@H](O)C[C@@H](O)[C@H](O)CC[C@@H](O)C[C@@H](O)CC(=O)O[C@H]1C)C[C@H](O)[C@H]2C(=O)O [AMB, Amphotericin B, reference compound]
MIC [1]: ≤ 2 µg/mL
MICTI (C. glabrata isolates; isolate 14408): 0.5 µg/mL
MICTI (C. glabrata isolates; isolate 14559): 0.5 µg/mL
MICTI (C. glabrata isolates; isolate 22394): 0.5 µg/mL
MICTI (C. glabrata isolates; isolate 23429): 1 µg/mL
MICTI (C. glabrata isolates; isolate 23481): 1 µg/mL
MICTI (C. glabrata isolates; isolate 27643): 0.5 µg/mL
MICTI (C. glabrata isolates; isolate 28557): 0.5 µg/mL
MICTI (C. glabrata isolates; isolate ATCC 90030): 0.5 µg/mL
MICTI (C. krusei isolates; isolate 749): 1 µg/mL
MICTI (C. krusei isolates; isolate 1853): 1 µg/mL
MICTI (C. krusei isolates; isolate 4364): 1 µg/mL
MICTI (C. krusei isolates; isolate 5029): 1 µg/mL
MICTI (C. krusei isolates; isolate 5072): 1 µg/mL
MICTI (C. krusei isolates; isolate 25504): 0.5 µg/mL
MICTI (C. krusei isolates; isolate 34987): 1 µg/mL
MICTI (C. krusei isolates; isolate ATCC 6258): 1 µg/mL
MICTI (C. parapsilosis isolates; isolate 4133): 0.25 µg/mL
MICTI (C. parapsilosis isolates; isolate 9613): 0.25 µg/mL
MICTI (C. parapsilosis isolates; isolate 10252): 0.5 µg/mL
MICTI (C. parapsilosis isolates; isolate 18154): 0.5 µg/mL
MICTI (C. parapsilosis isolates; isolate 27001): 0.25 µg/mL
MICTI (C. parapsilosis isolates; isolate ATCC 22019): 0.5 µg/mL
MICTI (C. tropicalis isolates; isolate 579): 0.5 µg/mL
MICTI (C. tropicalis isolates; isolate 622): 1 µg/mL
MICTI (C. tropicalis isolates; isolate 1776): 1 µg/mL
MICTI (C. tropicalis isolates; isolate 2467): 0.5 µg/mL
MICTI (C. tropicalis isolates; isolate 3014): 0.5 µg/mL
MICTI (C. tropicalis isolates; isolate 5115): 0.5 µg/mL
MICTI (C. tropicalis isolates; isolate 5806): 0.25 µg/mL
MICTI (C. tropicalis isolates; isolate ATCC 750): 0.5 µg/mL
MICTI (C. albicans isolates; isolate 456): 0.5 µg/mL
MICTI (C. albicans isolates; isolate 665): 1 µg/mL
MICTI (C. albicans isolates; isolate 685): 0.25 µg/mL
MICTI (C. albicans isolates; isolate 720): 0.5 µg/mL
MICTI (C. albicans isolates; isolate 963): 0.5 µg/mL
MICTI (C. albicans isolates; isolate 1544): 0.25 µg/mL
MICTI (C. albicans isolates; isolate 3666): 0.5 µg/mL
MICTI (C. albicans isolates; isolate 8658): 1 µg/mL
MICTI (C. albicans isolates; isolate ATCC 10231): 0.25 µg/mL
effect on kidney fungal burden, six days after infection (C. albicans isolate 3666; 5 mg/kg DIMICAN or 1 mg/kg AMB ip once daily for 5 days, p<0.05 (AMB), p<0.001 (DIMICAN) vs control): efficient; also recorded: significantly lower fungal burden
effect on kidney fungal burden, two days after infection (C. albicans isolate 3666; 5 mg/kg DIMICAN or 1 mg/kg AMB ip once daily, P>0.05 vs control): no effect on fungal load
